EP2039683B1, “Vasculostatic agents and methods of use thereof” (Targegen, Inc., priority 2002, dated 2004)

Legend:
[1] = test system: histamine as agonist; test: Miles assay, histamine as agonist; format: in vivo, Sprague-Dawley rats; conditions: 1.5 mg/kg; histamine 10 µg/injection site; vehicle 12
Experimental: Sprague-Dawley rats were first injected IV with vehicle alone or test agent, followed by IV injection of Evans blue dye, followed by intradermal injections of saline and VEGF (200 ng/injection site) along both shaved flanks.
The ability of test agents to influence edema induced by agonists other than VEGF was also tested.
The ability of test agent to influence vascular edema was tested as above, except that the ability to block edema was tested using either VEGF or histamine as the agonist (200 ng and 10 µg/injection site, respectively).

[2] = Cerebral stroke model, permanent middle cerebral artery occlusion; format: in vivo, mice; conditions: 1 mg/kg BW IV 60 min after ligation; for % Infarct reduction: versus vehicle of the same study; for Infarct area in mm^3 (mean ± SEM): twenty four hours later
Experimental: Cerebral strokes were created in mice by permanent ligation of the middle cerebral artery using a cauterizing tool, followed 60 min later by IV injection of either vehicle alone (50% PEG400 in water) or test agents (at 1 mg/kg BW). Twenty four hours later, brains were sectioned and stained using triphenyltetrazolium chloride to delineate viable from infarcted tissue.

[3] = test system: angiogenesis; test: Matrigel plug angiogenesis model, FITC-lectin quantification; format: in vivo, Athymic WeHi (nu/nu) mice; conditions: 10 mg/kg intraperitoneally bid for four days; matrigel with 400 ng/ml bFGF or VEGF
Experimental: FIGURE 13 (omitted) and 14 (omitted) illustrate the effects of invention compounds for their capacity to inhibit angiogenesis in vivo. […] Tumor extracellular matrix infused with the 160 ng of the described growth factors were injected subcutaneously in a Balb/C mouse. The described invention compound was injected daily at the described concentration for 5 days. After 5 days the animals were sacrificed and angiogenesis quantified based on the binding of fluorescently labeled, endothelium specific FITC-lectin. In the graph, compound A is 6,7-bis(4-hydroxyphenyl)-pteridin-4-ylamine sulfate salt.
Referring to FIGURES 13 (omitted) and 14 (omitted), a murine model of angiogenesis was used to screen compounds for their capacity to inhibit angiogenesis. […] In the graph, compound A is 6,7-bis(4-hydroxyphenyl)-pteridin-4-ylamine sulfate salt. Athymic WeHi (nu/nu) mice were first injected with 400; jls of an ice- cold tumor-derived extracellular matrix substrate, matrigel (Becton-Dickinson) infused with 400 ng/ml of bFGF or VEGF (R & D Systems) which rapidly solidifies into a subdermal plug at body temperature. […] Twenty minutes after injection of the lectin, mice were euthanized, matrigel plugs were then extracted, solublized in PBS with mechanical grinding and the fluorescent content of individual plugs was quantified. […]

[4] = test system: CTLL2; test: IL-2 dependent T-cell proliferation, XTT assay; format: cell-based, mouse; conditions: 96 hours, 50 pg human recombinant IL-2
[5] = test system: IL-2 induced VLS; test: IL-2 induced vascular leak syndrome, organ wet/dry weight; conditions: compound D in the 1 mg/kg range, compound E in the 0.1 mg/kg range; for reduction of VLS in the heart / reduction of VLS in the spleen: 9 injections of murine IL-2 and/or compound over 4 days
Description: BalbC mice were given 9 injections of the indicated dose of murine IL-2 (in this example formulated in saline with 5% bovine serum albumin) and/or invention compounds over a period of 4 days. Animals were then sacrificed followed by collection, blotting and weighing (wet weight) of heart, lungs, and spleen.
BalbC mice were given 9 injections of the indicated dose of murine IL-2 and/or invention compounds over a period of 4 days. Animals were then sacrificed followed by collection, blotting and weighing (wet weight) of heart, lungs, and spleen.

[6] = Oleic acid induced ARDS lung edema, wet/dry weight; format: in vivo, NIH Swiss mice; conditions: 0.5 mg/kg range; 1.5 mg/kg Oleic Acid intraperitoneal, lungs collected after four hours
Experimental: FIGURE 12 (omitted) illustrates the effects of invention compounds for their capacity to inhibit edema associated with Acute Respiratory Distress Syndrome (ARDS). NIH Swiss mice were given an intraperitoneal injection of 1.5 mg/kg Oleic Acid of (in this example formulated in saline) and/or invention compounds.
NIH Swiss mice were given an intraperitoneal injection of 1.5 mg/kg Oleic Acid of (in this example formulated in saline) and/or invention compounds.

O=C(Nc1cc2ccccc2[nH]1)c1cc(O)c(O)c(O)c1 [3,4,5-Trihydroxy-N-(1H-indol-2-yl)-benzamide]
Score with histamine as agonist (scale of 0-12) [1]: 7

O=C(Nc1ccccc1-c1cc2ccccc2[nH]1)c1cc(O)c(O)c(O)c1 [3,4,5-Trihydroxy-N-[2-(1H-indol-2-yl)-phenyl]-benzamide]
Score with histamine as agonist (scale of 0-12) [1]: 7

Oc1ncnc2nc(-c3ccccc3)c(-c3ccccc3)nc12 [6,7-Diphenyl-pteridin-4-ol]
Score with histamine as agonist (scale of 0-12) [1]: 4

Cc1ccc(-c2nn(C(C)(C)C)c3ncnc(N)c23)cc1 [PP1, reference compound]
% Infarct reduction [2]: Not significant

CN(C)S(=O)(=O)c1ccc2c(c1)/C(=C/c1cc3c([nH]1)CCCC3)C(=O)N2 [SU6656, reference compound]
Infarct area in mm^3 (mean ± SEM) [2]: 24.3 ± 5.3 mm^3 | % Infarct reduction [2]: Not significant

Nc1ncnc2nc(-c3ccc(O)cc3)c(-c3ccc(O)cc3)nc12.O=S(=O)(O)O [compound A, 6,7-bis(4-hydroxyphenyl)-pteridin-4-ylamine sulfate salt]
inhibition of angiogenesis in vivo [3]: successfully inhibited angiogenesis in vivo

O=C(O)c1ccccc1C(=O)Nc1ccccc1-c1cc2ccccc2[nH]1 [compound D]
impact on IL-2 induced T-cell proliferation ([4]; in the 1 mg/kg range as printed): no significant impact | Infarct area in mm^3 (mean ± SEM) [2]: 15.6 ± 5.16 mm^3 | % Infarct reduction [2]: 63% | reduction of VLS in the heart [5]: > 100% | reduction of VLS in the spleen [5]: > 100% | reducing VLS in vivo [5]: 80-100%

Nc1nc(N)c2nc(-c3cccc(O)c3)c(-c3cccc(O)c3)nc2n1.O=S(=O)(O)O [compound E]
impact on IL-2 induced T-cell proliferation ([4]; in the therapeutic range (< 1pM)): no significant impact | reduction of VLS in the heart [5]: > 100% | reduction of VLS in the spleen [5]: > 100% | reducing VLS in vivo [5]: 80-100%

Nc1ncnc2nc(-c3ccc(O)c(O)c3)c(-c3ccc(O)c(O)c3)nc12 [compound F, 4-[4-amino-6-(3,4-dihydroxyphenyl)pteridin-7-yl]benzene-1,2-diol]
reduction of ARDS-induced edema [6]: > 100%
